Read-outs that look alike come from different tables or passages of the source.
Key:
[1] = system: HEK293 cells expressing H30 indicator; experiment: Uptake in living cells, Epac-based FRET cAMP indicator H30; format: cell-based; conditions: 100 μM IBMX
From the text: Since FRET depends on the distance between the two fluorophores which in turn is ligand-dependent, this probe is used to estimate the intracellular level of cAMP or -analogs.
We can not exclude, however, that the Epac- based FRET sensor used for the measurements preferentially binds Sp-5,6-DCl-cBIMPS.
The ratio between the background subtracted emission intensities at 480 nm and 545 nm is plotted as a function of time. […] The insets show the yellow fluorescent protein fluorescence at the beginning of the experiments and the regions of interest where FRET ratios are calculated.
For transient expression of the H30 sensor, cells were seeded onto 24-mm diameter round glass coverslips, and transfections were performed at 50–70% confluence with FuGENE-6 transfection reagent (Roche). Imaging experiments were performed after about 24 h. Cells were maintained in Hepes-buffered Ringer-modified solution, containing 125 mM NaCl, 5 mM KCl, 1 mM Na3PO4, 1 mM MgS0_4, 5.5 mM glucose, 1 mM CaCl2, and 20 mM Hepes, pH 7.4, at room temperature and treated with 100 μM 3-Isobutyl-1-methylxanthine (IBMX, Sigma-Aldrich) 10 minutes before the experiments. […] FRET variations were measured as changes of the ratio between the background-subtracted fluorescence emission intensities at 480 nm and 545 nm, on excitation at 430 nm. […]

[2] = target: T1, GFP-hRIIα expressed in COS-7 cells (Homo sapiens, UniProt P13861); experiment: Co-localization with GFP-tagged RIIα by confocal microscopy; format: cell-based; conditions: 500 μM, 30 minutes
T1 construct: expressed in transfected cells; host or cells: COS-7
T1 sequence (P13861 whole entry): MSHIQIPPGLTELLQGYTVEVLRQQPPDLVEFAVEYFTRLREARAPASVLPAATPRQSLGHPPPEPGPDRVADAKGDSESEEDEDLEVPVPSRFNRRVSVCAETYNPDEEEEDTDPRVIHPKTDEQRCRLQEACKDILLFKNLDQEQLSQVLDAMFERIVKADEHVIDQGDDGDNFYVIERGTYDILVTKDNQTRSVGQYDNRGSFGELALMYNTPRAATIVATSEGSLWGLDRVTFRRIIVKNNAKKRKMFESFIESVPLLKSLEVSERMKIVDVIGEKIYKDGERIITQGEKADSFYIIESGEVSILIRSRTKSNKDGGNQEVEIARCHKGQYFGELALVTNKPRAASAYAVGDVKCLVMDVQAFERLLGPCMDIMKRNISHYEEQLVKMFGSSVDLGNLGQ
Description: (§1) The scale bar indicates 10 μm.
(§2) Cloning of the R subunits into the expression vector hpGFP^2-N2 (PerkinElmer) was performed as described previously. […] Cellular imaging was performed on a confocal microscope (Leica) with a Plan apo 100× oil immersion objective (Leica).

PKA-IIβ holoenzyme = target: T2, PKA-IIβ holoenzyme (Rattus norvegicus, UniProt P12369); experiment: PKA holoenzyme activation, coupled spectrophotometric kinase assay with Kemptide (RIIβ + Cα); format: biochemical, rat RIIβ, murine Cα; conditions: relative to cAMP
T2 construct: made in house; host or cells: E. coli BL21 (DE3) / BL21 (DE3) Codon Plus RIL
T2 sequence (P12369 whole entry): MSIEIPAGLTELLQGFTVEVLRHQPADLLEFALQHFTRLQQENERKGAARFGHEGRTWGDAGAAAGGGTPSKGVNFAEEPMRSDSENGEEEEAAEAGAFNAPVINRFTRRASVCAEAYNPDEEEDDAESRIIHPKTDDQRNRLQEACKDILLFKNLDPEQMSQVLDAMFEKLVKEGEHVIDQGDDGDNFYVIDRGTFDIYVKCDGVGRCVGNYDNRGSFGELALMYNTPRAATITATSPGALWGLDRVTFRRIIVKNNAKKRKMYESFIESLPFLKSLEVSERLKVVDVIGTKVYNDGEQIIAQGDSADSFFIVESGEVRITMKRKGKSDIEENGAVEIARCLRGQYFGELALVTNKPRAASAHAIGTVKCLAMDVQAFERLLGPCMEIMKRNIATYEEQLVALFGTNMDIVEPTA
Description: (§3) Kinase activity was assayed spectrophotometrically, using the synthetic heptapeptide Kemptide as a substrate. […] Each data point represents the mean ± S.D. of two measurements.

RIα subunit = target: T3, RIα subunit (Homo sapiens, UniProt P10644); experiment: Fluorescence polarization displacement of 8-Fluo-cAMP from RIα subunit; format: binding; conditions: 2.5 nM RIα, 1 nM 8-Fluo-cAMP
T3 construct: made in house; host or cells: E. coli BL21 (DE3) Codon Plus RIL
T3 sequence (P10644 whole entry): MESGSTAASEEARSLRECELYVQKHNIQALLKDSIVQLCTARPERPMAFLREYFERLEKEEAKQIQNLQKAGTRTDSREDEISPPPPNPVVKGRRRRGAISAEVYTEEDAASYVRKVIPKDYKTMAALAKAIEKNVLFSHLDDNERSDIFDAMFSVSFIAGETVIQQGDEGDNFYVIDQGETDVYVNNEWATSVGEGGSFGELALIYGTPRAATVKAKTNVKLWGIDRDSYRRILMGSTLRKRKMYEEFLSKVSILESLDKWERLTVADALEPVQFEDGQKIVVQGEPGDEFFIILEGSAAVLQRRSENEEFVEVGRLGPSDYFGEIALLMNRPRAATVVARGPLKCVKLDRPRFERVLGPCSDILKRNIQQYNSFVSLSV
Description: (§4) . Figure 3 Competitive nucleotide binding assay using fluorescence polarization. […] 2.5 nM R subunit was added and fluorescence polarization was determined at Ex485 nm/Em535 nm. […] Each data point represents the mean +/- S.E.M. from at least triplicate measurements.
(§5) For expression of PKA regulatory subunits, one liter of Luria Broth medium containing 100 μg/ml of ampicillin was inoculated with E. coli BL21 (DE3) Codon Plus RIL cells (Stratagene) transformed with human RIα, RIβ, RIIα (in pRSETB) or rat RIIβ (in pETIIc) and grown at 37°C to an OD600 nm of 0.8. Recombinant protein expression was induced by addition of […] isopropyl-β-D-thiogalactopyranoside (IPTG) and the culture was incubated at 25°C for additional 17–18 h. The pellets were stored at -20°C.
(§6) The fluorescence polarization displacement assay was performed as described before. […] Fluorescence polarization was measured after 5 minutes of incubation at room temperature.

[3] = target: T4, PKA-IIα sensor (RIIα-RLuc / GFP2-Cα) in COS-7 cells (Homo sapiens, UniProt P13861); experiment: BRET assay of PKA holoenzyme dissociation in living cells; conditions: 30 minutes
T4 sequence (P13861 whole entry): as the sequence (P13861 whole entry) above
From the text: In this assay, a decrease in BRET signal indicates intracellular dissociation of the PKA holoenzyme [42].
BRET signals were obtained after addition of the luciferase substrate DeepBlueC™ and detection of luciferase and fluorescence light emission using a multi-label reader. Shown is a representative experiment, repeated three times; data are mean ± S.E.M., performed with n = 6 replicates. […] Briefly, cells were co-transfected with a constant amount of BRET donor (hRIIα-Rluc) and an increasing amount of acceptor DNA (GFP^2-hCα) as indicated. […] The BRET values of two independent experiments, each performed with n = 6 replicates, were background subtracted, normalized and plotted as mean ± S.E.M.
COS-7 cells were used for BRET experiments. […] For the BRET read-out, the luciferase substrate DeepBlueC™ (PerkinElmer) was added at a final concentration of 5 μM in a total volume of 50 μl D-PBS. […] Control measurements with cells expressing RLuc and GFP proteins without a fusion partner yield the background BRET signal. A BRET titration (bystander BRET test) was performed by co-transfection of COS-7 cells with a constant donor-expression plasmid (0.5 μg) with an increasing amount of acceptor-expression plasmid (0–2 μg). The cells were treated as described above.

PKA-IIα holoenzyme = target: T5, PKA-IIα holoenzyme (Homo sapiens, UniProt P13861); experiment: PKA holoenzyme activation, coupled spectrophotometric kinase assay with Kemptide (RIIα + Cα); format: biochemical, human RIIα, murine Cα; conditions: relative to cAMP
T5 construct: made in house; host or cells: E. coli BL21 (DE3) / BL21 (DE3) Codon Plus RIL
T5 sequence (P13861 whole entry): as above
Description: as §3

[4] = Absorption and fluorescence spectra, relative quantum yield; format: physicochemical; conditions: pH 7.0
From the text: First we determined the photo-chemical properties of the free Pharos dye. The Stokes shift at pH 6.0, pH 7.0 and pH 7.4 was 42 nm resulting from an absorption maximum at 575 nm and an emission maximum at 617 nm (Fig. 1; […]
Figure 1 Fluorescence absorption and emission spectra of the Pharos dye. The absorption maxima of the Pharos dye dissolved in buffer with the indicated pH values is at 575 nm, whereas the emission maxima are at 617 nm.
To calculate the relative quantum yield ϕ of the Pharos dye the absorption (500 nm to 640 nm) and fluorescence (λex = 553 nm, λem ranging from 558 nm to 800 nm) spectra of several Pharos dye concentrations (640 nM to 64.2 μM) were recorded using quinine sulfate as a standard. The determination of the relative quantum yield is generally accomplished by plotting the integrated fluorescence intensity versus the absorbance at the excitation wavelength (see Additional file 1, panel a). By comparing the slope of the linear regression (see Additional file 1, panel b) with that of a standard substance (quinine sulfate), the relative quantum yield of the Pharos dye was determined to be 30%.
The Pharos dye was diluted in 20 mM 2-(4-morpholino)-ethane sulfonic acid (MES) buffer adjusted to pH 6.0, pH 7.0 and pH 7.4, and all samples were degassed by bubbling nitrogen through the solution before measuring the absorption or fluorescence spectra. […]

PKA-Iα holoenzyme = target: T6, PKA-Iα holoenzyme (Homo sapiens, UniProt P10644); experiment: PKA holoenzyme activation, coupled spectrophotometric kinase assay with Kemptide (RIα + Cα); format: biochemical, human RIα, murine Cα; conditions: 20 nM PKA-Cα, 260 μM Kemptide; cAMP value printed with refs 27, 28 and Fig. 4a; read-out: apparent activation constant (EC50), RIα holoenzyme
T6 construct: made in house; host or cells: E. coli BL21 (DE3) / BL21 (DE3) Codon Plus RIL
T6 sequence (P10644 whole entry): as the sequence (P10644 whole entry) above
Description: as §3

PDE4D5 = PDE4D5 (Homo sapiens, UniProt Q08499); experiment: Stability towards phosphodiesterase, coupled spectrophotometric activity assay; conditions: 15 minutes of assay duration
Chain of PDE4D5 (Q08499 1-745 isoform Q08499-6): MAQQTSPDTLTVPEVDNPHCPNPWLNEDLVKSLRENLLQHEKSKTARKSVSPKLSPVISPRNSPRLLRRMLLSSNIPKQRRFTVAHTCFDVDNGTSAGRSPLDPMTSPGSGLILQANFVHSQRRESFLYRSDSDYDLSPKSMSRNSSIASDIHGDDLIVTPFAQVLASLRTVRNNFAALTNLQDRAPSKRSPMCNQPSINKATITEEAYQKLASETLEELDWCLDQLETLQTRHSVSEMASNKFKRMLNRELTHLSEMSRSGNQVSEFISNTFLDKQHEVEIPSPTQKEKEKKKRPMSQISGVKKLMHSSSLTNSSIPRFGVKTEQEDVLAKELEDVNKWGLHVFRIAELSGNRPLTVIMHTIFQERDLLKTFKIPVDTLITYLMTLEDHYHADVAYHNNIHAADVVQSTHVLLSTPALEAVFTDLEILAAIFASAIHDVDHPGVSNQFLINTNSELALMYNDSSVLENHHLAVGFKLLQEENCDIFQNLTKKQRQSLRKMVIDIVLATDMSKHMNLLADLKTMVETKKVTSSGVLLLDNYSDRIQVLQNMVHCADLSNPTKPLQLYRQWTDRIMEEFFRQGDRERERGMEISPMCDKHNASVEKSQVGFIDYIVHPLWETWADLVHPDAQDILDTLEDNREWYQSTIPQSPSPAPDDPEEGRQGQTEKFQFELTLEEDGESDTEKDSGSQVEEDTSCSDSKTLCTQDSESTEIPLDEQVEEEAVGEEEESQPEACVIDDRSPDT
From the text: Absolutely stable analogs would arise from conjugating the Pharos fluorophore to phosphorothioate- modified structures such as Rp- or Sp-cAMPS (Rp- or Sp-diastereomer of adenosine 3'-5'-monophosphorothiorate).

RIIβ subunit = experiment: Fluorescence polarization displacement of 8-Fluo-cAMP from RIIβ subunit; format: binding, rat; conditions: 2.5 nM RIIβ, 1 nM 8-Fluo-cAMP
Description: as §4, §5, §6

[5] = Retention-based lipophilicity by reversed phase HPLC (logKw)
RIIα subunit = experiment: Fluorescence polarization displacement of 8-Fluo-cAMP from RIIα subunit; format: binding, human; conditions: 2.5 nM RIIα, 1 nM 8-Fluo-cAMP
Description: as §4, §5, §6

[6] = target: T7, GFP-hRIα expressed in COS-7 cells (Homo sapiens, UniProt P10644); experiment: Co-localization with GFP-tagged RIα by confocal microscopy; format: cell-based; conditions: 500 μM, 30 minutes
T7 construct: expressed in transfected cells; host or cells: COS-7
T7 sequence (P10644 whole entry): as the sequence (P10644 whole entry) above
Description: as §1, §2

[7] = target: T4, PKA-IIα sensor (RIIα-RLuc / GFP2-Cα) in COS-7 cells; design: expressed in transfected cells; host or cells: COS-7; method as in PMID 16524697; conditions: living cells; read-out: EC50, holoenzyme dissociation by BRET; cited from earlier work

## O[C@@H]1[C@@H]2OP(O)(=S)OC[C@H]2O[C@H]1n1cnc2cc(Cl)c(Cl)cc21 (single isomer, unassigned) [Sp-5,6-DCl-cBIMPS, 5,6-dichlorobenzimidazole riboside-3',5'-cyclic monophosphorothioate, Sp-isomer, reference compound]
[1]; 500 μM, after 40 minutes of treatment
  state of the fluorescent FRET probe after treatment: almost completely saturated

## 8-[Pharos-575]adenosine -3',5'-cyclic monophosphate [8-[ϕ-575]-cAMP]
[2]
  co-localization with GFP-tagged RIIα: co-localization
PKA-IIβ holoenzyme
  apparent activation constant (EC50) compared to cAMP, RIIβ holoenzyme: about two-fold increased
[1]; 500 μM added for one hour, estimated from cAMP dose-FRET response curve
  concentration available to the intracellular fluorescent indicator: about 7 μM
RIα subunit
  binding to the R subunit compared with cAMP (displacement of 8-Fluo-cAMP): bound equally well
[3]; 600 μM, COS-7 cells
  inhibition of specific RIIα-Cα interaction (BRET titration): about 50%
[3]; read-out: concentration for half-maximal holoenzyme dissociation, added to intact COS-7 cells
  EC50: ~600 µM
PKA-IIα holoenzyme
  apparent activation constant (EC50) compared to cAMP, RIIα holoenzyme: about two-fold increased
[4]
  emission maximum: 605 nm
  excitation maximum: 577 nm
PKA-Iα holoenzyme
  EC50: 0.15 µM
PDE4D5
  degradation by PDE4D5: No degradation
RIIβ subunit
  times cAMP is more efficient in displacing 8-Fluo-cAMP compared to 8-[ϕ-575]-cAMP: ~5 times
[5]; from logKw
  increased lipophilicity compared to cAMP: more than 70 times
[5]; reversed phase HPLC, YMC RP-18
  logKw: 2.95
RIIα subunit
  times cAMP is more efficient in displacing 8-Fluo-cAMP compared to 8-[ϕ-575]-cAMP: about 10 times
[6]
  co-localization with GFP-tagged RIα: co-localization

## Nc1ncnc2c1nc(Br)n2[C@@H]1O[C@@H]2COP(=O)(O)O[C@H]2[C@H]1O [8-Br-cAMP, 8-Bromoadenosine-3',5'-cyclic monophosphate]
[7]
  EC50: 1500 µM

From PMC2443153 (BMC Biochemistry, 2008)
